Experimental data as given in patent US20100040552A1, “METHODS TO EVALUATE GLUCOCORTICOID RECEPTOR AGONISTS AND ANTAGONISTS FOR EFFECTS ON NEURON-LIKE CELLS” (ROSETTA INPHARMATICS LLC, priority 2005, published 2010).
pIC50: −log10 of the molar value.

Biological target: T1, PR (progesterone receptor) (Homo sapiens, UniProt P06401)
T1 sequence (P06401 1-933): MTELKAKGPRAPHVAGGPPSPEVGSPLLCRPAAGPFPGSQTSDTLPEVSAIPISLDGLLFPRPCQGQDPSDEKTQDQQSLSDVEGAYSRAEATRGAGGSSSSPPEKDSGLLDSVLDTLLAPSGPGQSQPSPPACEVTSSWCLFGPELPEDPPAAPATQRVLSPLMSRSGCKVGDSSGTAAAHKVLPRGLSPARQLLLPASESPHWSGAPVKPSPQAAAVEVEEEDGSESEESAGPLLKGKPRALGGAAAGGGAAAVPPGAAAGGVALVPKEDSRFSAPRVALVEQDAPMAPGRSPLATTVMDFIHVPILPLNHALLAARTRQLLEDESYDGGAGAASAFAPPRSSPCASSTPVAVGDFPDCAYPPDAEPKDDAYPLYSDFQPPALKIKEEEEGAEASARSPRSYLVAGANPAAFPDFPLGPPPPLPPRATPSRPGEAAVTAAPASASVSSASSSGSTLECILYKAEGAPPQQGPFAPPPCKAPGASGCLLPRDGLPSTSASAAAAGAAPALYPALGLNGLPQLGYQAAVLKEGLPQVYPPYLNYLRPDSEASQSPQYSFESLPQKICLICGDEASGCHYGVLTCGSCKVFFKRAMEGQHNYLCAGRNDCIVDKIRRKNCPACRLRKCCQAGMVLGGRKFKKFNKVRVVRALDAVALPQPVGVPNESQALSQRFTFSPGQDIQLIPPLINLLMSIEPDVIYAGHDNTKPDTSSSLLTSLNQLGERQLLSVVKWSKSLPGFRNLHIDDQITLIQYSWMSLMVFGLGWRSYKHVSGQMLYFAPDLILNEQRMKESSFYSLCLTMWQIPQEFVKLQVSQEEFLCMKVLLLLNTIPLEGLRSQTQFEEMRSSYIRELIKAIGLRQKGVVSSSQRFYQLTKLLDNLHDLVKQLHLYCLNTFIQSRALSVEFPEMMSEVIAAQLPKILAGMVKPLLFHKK
Test: PR binding study
Text: The following abbreviations are used in Table II: MR, mineralocorticoid receptor; GR, glucocorticoid receptor; and PR, progesterone receptor.

SMILES: C[C@@H]1C[C@H]2[C@@H]3CCC4=CC(=O)C=C[C@]4(C)[C@@]3(F)[C@@H](O)C[C@]2(C)[C@@]1(O)C(=O)CO [Dexamethasone, dexamethasone]
- pIC50: < 6.00
